Series [1] has as its system hot flashes. Particulars: 27% for placebo, cited from earlier work.
Series [2] concerns hot flashes. The following applies: placebo response rate 37.8%, cited from earlier work.
Series [3] relates to hot flashes. Particulars: vs. 29% for placebo; cited from earlier work.
Series [4] has as its system hot flashes. The following applies: crossover analysis; cited from earlier work.
Series [5] concerns hot flashes. The following applies: cited from earlier work.
Series [6] concerns hot flashes. The following applies: oral and transdermal clonidine; cited from earlier work.
In series [7] the test system is women of reproductive age. The experiment in a line: Intranasal spray 500 nanograms in 14 women of reproductive age, autonomic and physiologic effects vs vehicle. The format is in vivo, human. Particulars: 500 nanograms intranasal, compared to the vehicle.
Series [8] can be described thus: Ames reverse mutation assay. The format is cell-based.
For series [9], the system named is bone marrow. The experiment in a line: in vivo bone marrow micronucleus test.
Series [10] deals with rats, mice, rabbits and dogs. In words: Acute and multidose (28 day) toxicity studies, intranasal and intravenous. Particulars: single intranasal up to 100 μg/rat, 400 μg/rabbit, 600 μg/dog; repeated up to 50 μg/rat/day, 300 μg/dog/day; intravenous single and repeated up to 2.5 mg/kg. The format is in vivo.
Series [11] in a line: Preclinical pharmacokinetic studies, intravenous doses. Type of series: in vivo, rats, rabbits, or dogs. The following applies: single repeated intravenous doses up to 2.5 mg/kg.
For series [12], the system named is women of reproductive age. In words: Intranasal spray 1600 nanograms in women of reproductive age, core body temperature and sympathoadrenergic tone. Type of series: in vivo, human. The following applies: 1600 nanograms intranasal. The protocol: In another test also in women of reproductive age, intranasal delivery of a nasal spray containing 1600 nanograms of 16α,17α-epoxy-10β-hydroxyestr-4-en-3-one (one administration per nostril by a Valois intranasal spray pump of 50 μL of an aqueous solution of 16 μg/mL 16α,17α-epoxy-10β-hydroxyestr-4-en-3-one with 2% propylene glycol and 2% ethanol) caused a rapid (0.5 to 4 minute latency) decrease in core body temperature of 1±0.23° C. that persisted for 9±2.5 minutes.

Series [13] deals with pregnant rabbits. In words: Reproductive toxicity studies in pregnant rabbits. The format is in vivo. The following applies: intravenous doses up to 2.5 mg/kg/day during the period of organogenesis.
A short description of series [14]: Preclinical pharmacokinetic studies, intranasal doses. The following applies: repeated or single escalating intranasal doses up to 100 μg/rat, 400 μg/rabbit, 600 μg/dog. The format is in vivo.

Like-named read-outs stand apart in the source and are kept apart here.

`COc1ccc(C(CN(C)C)C2(O)CCCCC2)cc1` (stereo not drawn) [venlafaxine, Venlafaxine]: the “reduction of hot flash scores from baseline” value in series [1] (37.5 mg/day) is 37%; in [1] (75 and 150 mg/day), 60%.
Consider `Fc1ccc([C@@H]2CCNC[C@H]2COc2ccc3c(c2)OCO3)cc1` [Paroxetine], for which the figures for the “decrease of hot flash composite scores” value in series [2] (12.5 mg/day) and in [2] (25.0 mg/day) were 62% and 65%, respectively.
In the case of `NCC1(CC(=O)O)CCCCC1` [Gabapentin], the “reduction of hot flash frequency” value in [3] is listed as 45%.
Consider `CNCCC(Oc1ccc(C(F)(F)F)cc1)c1ccccc1` (stereo not drawn) [Fluoxetine], for which the “reduction in hot flash frequency over the placebo condition” value in series [4] is around 20%.
Turning to `Clc1cccc(Cl)c1N=C1NCCN1` [clonidine, Clonidine], the “reduction of hot flash frequency” value is recorded as 46% in series [5] (oral clonidine) and 80% in series [5] (transdermal clonidine). Besides, the “reductions in hot flash frequency compared with placebo” value in [6] is on record as “smaller, but significant reductions”.
Consider `C[C@]12CC[C@H]3[C@@H](CCC4=CC(=O)CC[C@@]43O)[C@@H]1C[C@H]1O[C@H]12` [16α,17α-epoxy-10β-hydroxyestr-4-en-3-one, 16α,17α-Epoxy-10β-hydroxyestr-4-en-3-one], for which, in series [7], the cardiac frequency result is listed as “not statistically significant increase”, the core body temperature entry is listed as “statistically significant decreases”, the “electrodermal activity (skin conductance)” value is recorded as “statistically significant decreases” and the electromyographic activity entry is recorded as “statistically significant decreases”. Moreover, in [7], the respiratory frequency entry was “statistically significant decreases” and the vagal tone entry is “statistically significant increases”. Besides, the “mutagenic or clastogenic potential” value in [8] is “no evidence of mutagenic or clastogenic potential”. Also, in [9], the “mutagenic or clastogenic potential” value was “no evidence of mutagenic or clastogenic potential”. Further, the “tolerability (deaths, adverse clinical signs, effects on laboratory or pathology parameters)” value in [10] is “well tolerated in all species tested”. In addition, in series [11], the plasma concentrations entry is “generally were dose-proportional and decreased rapidly”. For the same compound, in series [12], the “decrease in core body temperature” value is 1±0.23 °C, the “persistence of decrease in core body temperature” value came to 9 ± 2.5 min and the “time to reduced tone of the sympathoadrenergic system (physiologic sinus arrhythmia)” value is at most 5 minutes. The “effects on maternal or litter parameters” value in [13] was “no adverse effects on maternal or litter parameters”. The systemic exposure result in series [14] is recorded as “very low systemic exposure”.
